“Also recorded” adds a separate entry of the source. Read-outs that look alike come from different tables or passages of the source.
What was measured:
[1] = tested on: Apo E(-/-) mice fed with HFD/High Cholesterol diet; test: lipid profile and atherosclerosis plaque in 18 ApoE mice, 4 weeks study; format: in vivo, mouse
Protocol: [table] […] Before HFD; 4 week: […] After 4 weeks treatment Oil Red staining procedure: • Sacrificed the mice and heart, aorta, and arteries were dissected under the dissecting microscope. […] Stain with freshly prepared Oil Red 0 working solution 10 mins. Image analysis procedure: • The unfolded vascular inner wall “Were scanned with Aperio ScanScope system and the area of atherosclerotic plaque was measured by Image-Proplus software after oil red 0 staining as follow picture shown. We measured the sum lesion areas and mean density using ipp software and calculated atherosclerotic percent. Area percent (%)” Sum area of atherosclerotic plaque (mm2) I whole area of vascular inner wall

[2] = tested on: New Zealand white rabbit fed with high fat diet; conditions: for atherosclerosis Grade: individual animals, listed as APOAI
Protocol: The treatment groups were given APOAJ via auricular vein once a week Vehicle controls received normal saline via auricular vein once a week. […] The body weight of animal was determined every week and whole blood was drawn every three weeks. The study duration was 19 weeks. At the end of study, all animals were sacrificed. […] Male New Zealand white rabbits were used in this study. […] Blood samples were taken 12 hour after fasting before study to determine the blood lipid parameters. […] Ten to 14 rabbits were in one group. […] First dose was given 1 week before high fat diet. […] 5.2 blood lipid parameters: whole blood was drawn every three weeks. Animals were subject to 12 hour fast before taking blood. […] The upper layer of serum was then separated and examined for total cholesterol (TC), total triglyceride (TG), low density lipoprotein cholesterin (LDL-C), and high density lipoprotein cholesterin (HDL-C). Test reagents were purchased from Shanghai A: The atherosclerosis of aorta (plaque area lj) B: Liver index C: Aorta, liver, heart, arteria carotis, kidney All animals were anesthetized by 20 of ethyl carbamate and then sacrificed with air injection. Abdomen cavity was opened. Whole blood was taken from heart. Heart was harvested along with 7 em of aorta. Then other organs like liver, kidney and arteria carotis were harvested. […] Pictures were taken then. Aorta was cut from aortic arch, opened longitudinally and taken picture. […] One piece of this sample was fixed in fomlalin for further pathological analysis. The weight of liver was determined immediately. Two pieces of specimen were cut from hepatic lobe. One was kept in cryo-preservation tube for lipid analysis and another one was fixed in formalin for further pathological analysis. Animals were fast for 12 hours before taking blood samples via auricular vein. […] Test reagents were purchased from Shanghai Rong Sheng Bio-pharmaceutical Co. Ltd. The aorta was dissected and opened for 7.5 em from aortic arch longitudinally. Pictures were taken and atherosclerosis changing was analyzed.

[3] = tested on: ApoE ko mice fed with high fat diet
Source text: 10 ApoE ko mice were fed with regular chow diet and used as negative control group. 50 ApoE ko mice were fed with high fat diet (35% kcal fat, 1% cholesterol) for 8 weeks, and then the plasma samples were collected for lipid profile measurement before the treatment. 50 ApoE ko mice were assigned into 5 groups based on the fasting overnight plasma TC and HDL level.
19 Mar. 2012 to 6 Apr. 2012: Group the mice based on the TC and HDL level and start the treatment with 3 doses of antibody APOA1 by i.p daily on the weekday (The first dose was administered by iv injection
13 Apr. 2012-14 May 2012: The treatment with antibody APOA1 was changed to i.p injection every two days (Monday, Wednesday, and Friday) per client's instruction.
Antibody products were administrated by intraperitoneal injection every two days (Monday, Wednesday, and Friday). and the positive compound was administered by p.o every day.
5.4. Body weight and blood glucose measurement: The body weight was weighed weekly during the period of treatment. The fasting overnight blood glucose was measured at the end of study by Roche glucometer.
5.5 24 h food intake measurement: 24 hours food intake for each cage was measured weekly
5.6. Plasma lipid profile measurement: About 300 ul of blood sample was collected from the orbital vein for each mouse and centrifuged at 7000 rpm for 5 min at 4° C. and the plasma lipid profile was measured by Roche Modular automatic biochemistry analyzer in DaAn Medical Laboratory
After RAAS antibody products treatment for 8 weeks, all mice were sacrificed. Measured body weight and collected blood sample for each mouse. Weighed liver weight and saved a tiny piece of liver into 4% paraformaldehyde (PFA) fixation solution for further analysis. At same time, take the photos with heart, lung, aortas and two kidneys.
Scanning the glasses slides with the Aperio ScanScope system and analyze with the image proplus software to measure the area of atherosclerotic plaque session. The results were expressed as the percentage of the total aortic surface area covered by lesions. The operation procedure of software was briefly described as follow: Converted the sys version photos into JPG version, then calibrated it and subsequently selected the red regions and then calculate the total area automatically by image proplus software.
The results were expressed as the Mean±SEM and statistically evaluated by student's t-test.

[4] = low dose group vs vehicle control
[5] = medium group vs vehicle control

Which results are given for “human Apoiipoprotein AI, injection [APOA1]”?
blood plasma lipid profile ([1]; after 5 weeks treatment, 0.2 ml iv/ip): didn't improve the lipid profile; atherosclerotic plaques/lesions ([1]; vs vehicle group after 14 dosing): trend on reducing the atherosclerotic plaques/lesions; Lipid content in aorta: HDL-C ([2]; High dose): 0.111; Lipid content in aorta: LDL-C ([2]; High dose): 0.318; Lipid content in aorta: TC ([2]; High dose): 0.29; Lipid content in aorta: TG ([2]; High dose): 0.402; Lipid content in liver: HDL-C ([2]; High dose): 0.825 ± 0.129; Lipid content in liver: LDL-C ([2]; High dose): 2.302 ± 0.054; Lipid content in liver: TC ([2]; High dose): 2.841 ± 0.298; Lipid content in liver: TG ([2]; High dose): 1.3 ± 0.171; Liver index ([2]; High dose (n = 8)): 4.257 ± 0.482%; Liver weight ([2]; High dose (n = 8)): 151.69 ± 18.49 g; Lipid content in aorta: HDL-C ([2]; Low dose): 0.092; Lipid content in aorta: LDL-C ([2]; Low dose): 0.254; Lipid content in aorta: TC ([2]; Low dose): 0.28; Lipid content in aorta: TG ([2]; Low dose): 0.337; Lipid content in liver: HDL-C ([2]; Low dose): 0.803 ± 0.236; Lipid content in liver: TC ([2]; Low dose): 2.95 ± 0.809; Lipid content in liver: TG ([2]; Low dose): 1.369 ± 0.251; Liver index ([2]; Low dose (n = 12)): 3.886 ± 0.489%; Liver weight ([2]; Low dose (n = 12)): 128.096 ± 20.43 g; Liver index ([2]; Medium dose (n = 9)): 3.708−.−i−:( ).391%; Liver weight ([2]; Medium dose (n = 9)): 112.006− −+ .−25.79 g; Lipid content in aorta: HDL-C ([2]; Middle dose): 0.128; Lipid content in aorta: LDL-C ([2]; Middle dose): 0.307; Lipid content in aorta: TC ([2]; Middle dose): 0.332; Lipid content in aorta: TG ([2]; Middle dose): 0.388; Lipid content in liver: HDL-C ([2]; Middle dose): 0.815 ± 0.249; Lipid content in liver: LDL-C ([2]; Middle dose): 1.407 ± 0.418; Lipid content in liver: TC ([2]; Middle dose): 2,214 ± 0.515; Lipid content in liver: TG ([2]; Middle dose): 1.081 ± 0.31; blood lipid parameters ([2]; given along with high fat diet): no significant decrease in blood lipid parameters; TG, lipid content in liver ([2]; high dose group vs vehicle control): significantly lower; atherosclerosis Grade ([2]; high dose group): IV (Grade IV was greater than 75%); pathological change of aorta ([2]; low dose group): no significant improvement; TG, lipid content in liver [2, 4]: significantly lower; cellular swelling in liver [2, 4]: same; fat degeneration in liver [2, 4]: better; atherosclerosis Grade ([2]; low dose group): I (grade I was less than 25 ?-)); also recorded: IV (Grade IV was greater than 75%); atherosclerosis Grade ([2]; medium dose group): I (grade I was less than 25 ?-)); area of atherosclerosis ([2]; medium group (40 mg/kg) vs vehicle control): significant less; LDL-C, lipid content in liver [2, 5]: significantly lower; TC, lipid content in liver [2, 5]: significantly lower; TG, lipid content in liver [2, 5]: significantly lower; cellular swelling and fat degeneration in liver [2, 5]: better; pathological change of aorta (endothelium swelling, smooth muscle migrating, foam cell formation) [2, 5]: better; Body weight Wk 19 ([2]; rabbit, in vivo): 3.19-.-i-:( ).278 kg; atherosclerosis change in Arteria carotis ([2]; rabbit, in vivo): no atherosclerosis change found; calcification, pathological examination ([2]; rabbit, in vivo): no calcification found; kidney Pathological change ([2]; rabbit, in vivo): -; pathological change in heart and kidney ([2]; rabbit, in vivo): no pathological change found; high density lipoprotein cholesterin (HDL-C) Wk 19 ([2]; serum, High dose (n = 8)): 4.993 · −+ :2.018 mmol/L; ligh density lipoprotein cholesterin (LDL-C) Wk 0 ([2]; serum, High dose (n = 8)): 0.92 ± 0.324 mmol/L; ligh density lipoprotein cholesterin (LDL-C) Wk 19 ([2]; serum, High dose (n = 8)): 14.1 ± 4.188 mmol/L; total cholesterol (TC) Wk 0 ([2]; serum, High dose (n = 8)): 1.59 .t-J}.48 mmol/L; total cholesterol (TC) Wk 19 ([2]; serum, High dose (n = 8)): 12.49 -t-2.81 mmol/L; high density lipoprotein cholesterin (HDL-C) Wk 0 ([2]; serum, Low dose (n = 12)): 0.705 ± 0.246 mmol/L; high density lipoprotein cholesterin (HDL-C) Wk 19 ([2]; serum, Low dose (n = 12)): 3.744 ± 2.14 mmol/L; ligh density lipoprotein cholesterin (LDL-C) Wk 0 ([2]; serum, Low dose (n = 12)): 0.826 ± 0.279 mmol/L; ligh density lipoprotein cholesterin (LDL-C) Wk 19 ([2]; serum, Low dose (n = 12)): 7.298 ± 4.60 mmol/L; total cholesterol (TC) Wk 0 ([2]; serum, Low dose (n = 12)): 1.06.-i-:0.27 mmol/L; total cholesterol (TC) Wk 19 ([2]; serum, Low dose (n = 12)): 9.07-.+:4.92 mmol/L; total triglyceride (TG) Wk 0 ([2]; serum, Low dose (n = 12)): 0.786 ± 0.229 mmol/L; total triglyceride (TG) Wk 19 ([2]; serum, Low dose (n = 12)): 1.267 ± 0.772 mmol/L; high density lipoprotein cholesterin (HDL-C) Wk 0 ([2]; serum, Medium dose (n = 9)): 0.67 ± 0.207 mmol/L; high density lipoprotein cholesterin (HDL-C) Wk 19 ([2]; serum, Medium dose (n = 9)): 4.343 ± 2.439 mmol/L; ligh density lipoprotein cholesterin (LDL-C) Wk 19 ([2]; serum, Medium dose (n = 9)): 6.357 ± 4.475 mmol/L; total cholesterol (TC) Wk 0 ([2]; serum, Medium dose (n = 9)): 1.77 ± 0.783 mmol/L; total cholesterol (TC) Wk 19 ([2]; serum, Medium dose (n = 9)): 10.28 ± 5.82 mmol/L; total triglyceride (TG) Wk 0 ([2]; serum, Medium dose (n = 9)): 0.656 ± 0.19 J·mmol/L; HDL-C ([2]; serum, all treatment groups vs vehicle control): significantly high; dose escalation effect ([2]; three treatment groups, anatomic, pathological and biochemistry examination): no dose escalation effect; Liver index ([2]; treatment group vs vehicle): lower in treatment group, but there's no statistical difference found; lipid content in aorta ([2]; treatment groups vs vehicle control): lower in treatment groups than that in vehicle control but there was no statistical significance; arteriosclerosis plaque lesion in the region of thoracic aorta (root plaque area) ([3]; APOA1 mid dose and low dose, not significant vs vehicle): trend of reducing the arteriosclerosis plaque lesion; plasma total cholesterol (TC) ([3]; after 8 week treatment, APOA1 low dose): significantly lower total cholesterol level; plasma TG level ([3]; after 8 weeks treatment): no effect; fasting overnight blood glucose ([3]; after 8 weeks treatment vs vehicle): no effect; ratio of liver weight/body weight ([3]; after 8 weeks treatment vs vehicle, RAAS antibody low dose, atorvastatin 20 mg/kg): reduced the ratio of liver weight/body weight significantly; atherosclerosis plaque lesion area of aorta ([3]; after 8 weeks treatment, APOA1 low dose): trend on reducing the plaque lesion area; deaths in the treatment groups ([3]; after 15 doses treatment): several mice died; atherosclerosis plaque lesion from the aortic root to right renal artery ([3]; atorvastatin p=0.08): trend of reducing the atherosclerosis plaque lesion in a dose dependent manner; plasma HDL ([3]; low dose, after 4 weeks treatment): significantly decrease the HDL level; body weight ([3]; vs vehicle group, atorvastatin after 5 weeks treatment): trend on reducing body weight but didn't reach statistic difference

Reference: patent publication US20170198027A1 (priority 2012, published 2017)
